Measurements taken from patent US5962502A, “Polyamidic acid derivatives with antigastrin activity, a method for their preparation, and their pharmaceutical use” (priority 1993, dated 1999).
Several values for one entry are separate records, joined by “and”; a condition that tells them apart may be missing. Equal entries are not always repeated.

Experiments:
CCK-A = biological target: T1, CCK-A (Cavia porcellus, UniProt Q63931); assay: Anti-CCK-A activity on guinea-pig gall bladder stimulated in vitro by CCK-8; details: for Ratio I/II (CCK-A IC50 / CCK-B IC50): gall bladder IC50 over gastric mucous cells IC50; for IC50: guinea-pig gall bladder in vitro, CCK-8 10 ng/ml, read-out: CCK-A-antagonistic activity IC50 (I)
T1 construct: A longitudinal strip of guinea-pig gall-bladder was put in a bath for isolated organs; from tissue; host or cells: guinea-pig gall bladder longitudinal strip
T1 sequence (Q63931 1-430): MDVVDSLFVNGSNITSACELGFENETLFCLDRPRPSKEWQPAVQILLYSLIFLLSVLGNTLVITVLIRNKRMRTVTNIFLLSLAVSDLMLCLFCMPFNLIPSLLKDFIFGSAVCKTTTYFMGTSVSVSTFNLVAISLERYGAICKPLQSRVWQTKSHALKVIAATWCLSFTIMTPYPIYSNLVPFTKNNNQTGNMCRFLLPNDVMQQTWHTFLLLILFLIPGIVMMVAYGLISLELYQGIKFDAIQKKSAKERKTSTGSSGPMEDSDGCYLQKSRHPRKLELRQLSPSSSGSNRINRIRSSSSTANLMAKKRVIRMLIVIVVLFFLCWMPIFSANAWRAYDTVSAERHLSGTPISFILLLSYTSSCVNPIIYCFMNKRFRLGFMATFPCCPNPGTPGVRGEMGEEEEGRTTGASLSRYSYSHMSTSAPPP
Procedure: The experimental model used was guinea-pig gall bladder stimulated in vitro by CCK-8, with the use of lorglumide as the reference standard. A longitudinal strip of guinea-pig gall-bladder was put in a bath for isolated organs in the presence of Krebs buffer at a temperature of 32° C., with continuous oxygenation with an oxygen-CO2 mixture (95-[…]). The isometric contractions were detected by means of a force transducer and recorded.

[1] = system: acid secretion induced by pentagastrin; assay: Acid secretion induced by pentagastrin in the anaesthetized rat; assay type: in vivo; details: for ED50: iv, 1 h, I.V. bolus, pentagastrin 30 mcg/kg/h, read-out: Activity (ID50), inhibition of the acid secretion induced by pentagastrin; for antigastrin activity relative to the diastereoisomer at the carbon atom (**): pentagastrin-induced acid secretion
Procedure: The activity of the compounds of the invention against gastric secretion performed by means of a mechanism with an antigastrin effect, was examined in vivo in anaesthetized rats with the use of male animals weighing about 200 g. Gastric secretion was stimulated with pentagastrin and Lai's method [Gut 5, (1964), 327-341 ] was used, with slight modification.
After tracheotomy, the oesophagus and duodenum were cannulated. A tepid solution (37° C.) of 0.25 mM NaOH was perfused and was passed through the stomach by means of a peristaltic pump at a constant flow-rate of 1 ml/minute. After stabilization for 20 minutes, the stimulant, dissolved in a physiological solution, was perfused for 120 minutes at a dose of 30 mcg/kg/h, in a volume of 0.95 ml/hour. After perfusion for 60 minutes (the basal stimulation), the product under test was administered intravenously (I.V.) as a bolus and perfusion of the stimulant was continued for a further 60 minutes. The acid secretion was recorded continuously as a function of time.
The activity of the product was evaluated as the percentage reduction of secreted acidity after the administration of the product, in comparison with the basal acidity measured during the first 60 minutes of collection in the presence of pentagastrin alone.
The antagonistic compounds tested were administered in various doses so that an ID50, that is, the dose (in mg/kg I.V.) which could inhibit the effect of pentagastrin by 50%, could be calculated.

mouse = assay: Black and White Box test in the mouse (anxiolytic activity); assay type: in vivo; details: for LIGHT TIME TOTAL TIME / LIGHT-DARK MOVEMENTS / MOV. DARK % TOTAL MOV. / TOTAL MOVEMENTS: 5 minutes; for anxiolytic activity, result in words: Black and White Box test, IP; for increase in the number of light-dark movements in comparison with the controls: summary over doses
Procedure: It has recently been postulated that the central CCK-B receptor has an important role in anxiety. This is in accordance with studies also carried out in man, which have shown that the central CCK-B mechanisms have an important function in the mediation of panic attacks [Bradwejn, H. et al; J. Psychopharmacology 6 (1992), 345]. […] This experimental model, which was carried out according to Costall et al [Pharm. Biochem. Behav. 32 (1989), 777-785], used a box with dimensions of 45×21×21(h) cm divided into 2 compartments which communicated with one another through a 13×5 cm hole. The smaller compartment (1/3 of the total area) had black walls, whereas the larger had transparent walls and was illuminated by a lamp which was placed 20 cm above the box and supplied light at 20W. Under the floor there was an activity meter which recorded the movements performed by the animal in the individual compartments. The experiment was started by placing the animal in the centre of the illuminated box; as well as movements, the time which the animal spent in the dark and in the light areas and the number of movements between the 2 compartments were then recorded for 5 minutes. A control animal generally preferred to stay in the dark compartment where it felt better protected from an unusual environmental situation which put it in a state of anxiety. In this experimental model, a compound having anxiolytic activity decreased the % of movements into the dark in comparison with the total movements, increased the movements between the two light-dark compartments, and increased the % of time spent in the light in comparison with the total time.
The results obtained are shown in Table 7, where the activities obtained with compounds 9, 21 and 51 are given, tested in comparison with diazepam.

O=C(CC[C@@H](NC(=O)c1cc(Cl)cc(Cl)c1)C(=O)N1CCC2(CCCC2)CC1)N[C@H](Cc1c[nH]c2ccccc12)C(=O)O [Compound 21]
Ratio I/II (CCK-A IC50 / CCK-B IC50) (CCK-A): 940 | IC50 (CCK-A): 9.4 µM | ED50 [1]: 7.9 mg/kg and 12.6 µmol/kg | antigastrin activity relative to the diastereoisomer at the carbon atom (**) [1]: almost the same antigastrin activity | EFF. % VS CONTROL (LIGHT TIME TOTAL TIME) (mouse; 0.03 mg/kg IP): 11% | EFF. % VS CONTROL (LIGHT-DARK MOVEMENTS) (mouse; 0.03 mg/kg IP): 26% | EFF. % VS CONTROL (MOV. DARK % TOTAL MOV.) (mouse; 0.03 mg/kg IP): -6% | LIGHT TIME TOTAL TIME (mouse; 0.03 mg/kg IP): 28.9% | LIGHT-DARK MOVEMENTS (mouse; 0.03 mg/kg IP): 18.2 | MOV. DARK % TOTAL MOV. (mouse; 0.03 mg/kg IP): 62% | TOTAL MOVEMENTS (mouse; 0.03 mg/kg IP): 522 | EFF. % VS CONTROL (LIGHT TIME TOTAL TIME) (mouse; 0.3 mg/kg IP): 30% | EFF. % VS CONTROL (LIGHT-DARK MOVEMENTS) (mouse; 0.3 mg/kg IP): 37% | EFF. % VS CONTROL (MOV. DARK % TOTAL MOV.) (mouse; 0.3 mg/kg IP): -1.1% | LIGHT TIME TOTAL TIME (mouse; 0.3 mg/kg IP): 33.9% | LIGHT-DARK MOVEMENTS (mouse; 0.3 mg/kg IP): 19.8 | MOV. DARK % TOTAL MOV. (mouse; 0.3 mg/kg IP): 57% | TOTAL MOVEMENTS (mouse; 0.3 mg/kg IP): 499 | EFF. % VS CONTROL (LIGHT TIME TOTAL TIME) (mouse; 3.0 mg/kg IP): 24% | EFF. % VS CONTROL (LIGHT-DARK MOVEMENTS) (mouse; 3.0 mg/kg IP): 26% | EFF. % VS CONTROL (MOV. DARK % TOTAL MOV.) (mouse; 3.0 mg/kg IP): -9% | LIGHT TIME TOTAL TIME (mouse; 3.0 mg/kg IP): 32.4% | LIGHT-DARK MOVEMENTS (mouse; 3.0 mg/kg IP): 18.2 | MOV. DARK % TOTAL MOV. (mouse; 3.0 mg/kg IP): 60% | TOTAL MOVEMENTS (mouse; 3.0 mg/kg IP): 495 | anxiolytic activity, result in words (mouse): anxiolytic activity without sedative activity | increase in the number of light-dark movements in comparison with the controls (mouse): 20-30%

O=C(CC[C@@H](NC(=O)c1cc(Cl)cc(Cl)c1)C(=O)N1CCC2(CCCC2)CC1)N[C@H](Cc1ccccc1)C(=O)O [Compound 9, (R,R)-1[(1-carboxy-2-phenylethyl)amino]-1 oxo-5-(8-azaspiro[4.5]decan-8-yl)-4-(3,5-dichloro-benzoylamino)-5-oxopentanoic acid]
Ratio I/II (CCK-A IC50 / CCK-B IC50) (CCK-A): 108 | IC50 (CCK-A): 5.4 µM | ED50 [1]: 12.3 mg/kg and 22.6 µmol/kg | antigastrin activity relative to the diastereoisomer at the carbon atom (**) [1]: about twice | EFF. % VS CONTROL (LIGHT TIME TOTAL TIME) (mouse; 0.1 mg/kg IP): 17% | EFF. % VS CONTROL (LIGHT-DARK MOVEMENTS) (mouse; 0.1 mg/kg IP): 6% | EFF. % VS CONTROL (MOV. DARK % TOTAL MOV.) (mouse; 0.1 mg/kg IP): 0% | LIGHT TIME TOTAL TIME (mouse; 0.1 mg/kg IP): 31.0% | LIGHT-DARK MOVEMENTS (mouse; 0.1 mg/kg IP): 16.1 | MOV. DARK % TOTAL MOV. (mouse; 0.1 mg/kg IP): 59% | TOTAL MOVEMENTS (mouse; 0.1 mg/kg IP): 505 | EFF. % VS CONTROL (LIGHT TIME TOTAL TIME) (mouse; 1.0 mg/kg IP): 36% | EFF. % VS CONTROL (LIGHT-DARK MOVEMENTS) (mouse; 1.0 mg/kg IP): 31% | EFF. % VS CONTROL (MOV. DARK % TOTAL MOV.) (mouse; 1.0 mg/kg IP): -7% | LIGHT TIME TOTAL TIME (mouse; 1.0 mg/kg IP): 36.1% | LIGHT-DARK MOVEMENTS (mouse; 1.0 mg/kg IP): 19.9 | MOV. DARK % TOTAL MOV. (mouse; 1.0 mg/kg IP): 55% | TOTAL MOVEMENTS (mouse; 1.0 mg/kg IP): 493 | EFF. % VS CONTROL (LIGHT TIME TOTAL TIME) (mouse; 10.0 mg/kg IP): 26% | EFF. % VS CONTROL (LIGHT-DARK MOVEMENTS) (mouse; 10.0 mg/kg IP): 16% | EFF. % VS CONTROL (MOV. DARK % TOTAL MOV.) (mouse; 10.0 mg/kg IP): -7% | LIGHT TIME TOTAL TIME (mouse; 10.0 mg/kg IP): 33.5% | LIGHT-DARK MOVEMENTS (mouse; 10.0 mg/kg IP): 17.7 | MOV. DARK % TOTAL MOV. (mouse; 10.0 mg/kg IP): 55% | TOTAL MOVEMENTS (mouse; 10.0 mg/kg IP): 503 | anxiolytic activity, result in words (mouse): anxiolytic activity without sedative activity | increase in the number of light-dark movements in comparison with the controls (mouse): 20-30%
